# According to patent publication US8338607B2, “Cyclic amine compounds and agents for pest control” (Nippon Soda Co., Ltd., priority 2005, dated 2012):
# Columns and labels:
# Tetranychus urticae = experiment: Effectiveness against Tetranychus urticae (common bean leaf, wettable powder drug solution); type: in vivo; conditions: adult female Tetranychus urticae resistant to organophosphorus pesticides; 125 ppm; examined 3 days after the application; 25° C., 65% humidity
# Panonychus citri = experiment: Effectiveness against Panonychus citri (mandarin orange leaf, emulsion applied with rotary spreading tower); type: in vivo; conditions: adult female Panonychus citri; 125 ppm; adults removed 3 days after the application; whether eggs could grow to adults examined on the 11th day
# Method: 10 adult female Panonychus citri were inoculated on the leaf of a mandarin orange, which was placed in a petri dish. After the inoculation, the drug solution, which was prepared by following the method of the emulsion shown in Example 2 of the drugs and by diluting with water to achieve the compound concentration of 125 ppm, was applied using a rotary spreading tower. The dish was placed in a temperature-controlled room where the temperature and humidity were set to 25° C. and 65% respectively, adults were removed 3 days after the application, and whether eggs laid during these 3 days could grow to become adults was examined on the 11th day.
Compound,insecticidal rate (adulticidal rate) (Tetranychus urticae) [%],insecticidal rate (Panonychus citri) [%]
"FC(F)(F)c1ccc(OC2CC3CCC(C2)N3c2ccc(C(F)(F)F)cn2)nc1 (stereo not drawn) [Compound 2-3, 3α-(5-trifluoromethyl-2-pyridyloxy)-8-(5-trifluoromethyl-pyridine-2-yl)-8-azabicyclo[3.2.1]octane]",100,
CCCOc1cc(C(F)(F)F)ccc1OC1CC2CCC(C1)N2c1ccc(C(F)(F)F)c(F)c1 (stereo not drawn) [Compound 4-70],100,100
